Test results published in patent US6414222B1, “Gene combinations for herbicide tolerance in corn” (Regents of the University of Minnesota, priority 1993, dated 2002).

Experiments:
[1] = test system: ACCase of cell line 2167-9/2160-154 H-2; experiment: Herbicide inhibition of ACCase, line H-2; assay type: biochemical, maize; conditions: cell line H-2
Procedure: Maize chloroplasts, isolated as described above, were suspended in buffer C (0.1 M Tricine-KOH, pH 8.0; 0.3 M glycerol, and 1 mM DTT) and homogenized in a glass tissue homogenizer. The disrupted chloroplast fraction was centrifuged at 16,000 g for 15 minutes. The supernatant was desalted on a Sephadex G-25 column (1.5×5 cm equilibrated with 0.1 M Tricine-KOH, pH 8.0; and 0.3 M glycerol) and assayed directly. ACCase activity (B. J. Nikolau et al., Arch. Biochem. Biophys., 211, 605-612 (1981)) was assayed at 30° C. in a 0.2 ml volume which contained 1 mM ATP, 3 mM acetyl coenzyme A, 2.5 mM MgCl2, 50 mM KCl, 0.5 mM DTT, and 15 mM [^14C]NaHCO3 (0.17 mCi/mmol). Reactions were initiated by addition of acetyl coenzyme A and stopped by addition of 25 μl of 12 N HCl. Product formation was determined by the radioactivity found in an acid stable fraction by liquid scintillation spectrometry. Enzyme activity was linear for 15 minutes.
Acetyl Coenzyme A Carboxylase (ACCase) was extracted from cell lines S-1, H-1 and H-2 and assayed as described in detail for maize cell line S-2, above.

[2] = test system: Heterozygous tolerant Inbred × S3 seedlings; experiment: Foliar herbicide application, lethal rate; assay type: in vivo, maize (Zea mays L.); conditions: Heterozygous tolerant Inbred × S3, average of A188- and A619-derived F1 families
Procedure: (§1) Foliar applications of the herbicides were made to greenhouse- or field-grown seedlings at the three- to five-leaf stage. Herbicides were applied in a spray volume of 187 l/ha that includes 2.3 l/ha crop oil concentrate to enhance uptake. Sethoxydim and haloxyfop were applied using commercial formulations (Poast from BASF Corp and Verdict from Dow Elanco, respectively). Visual observations were recorded 14-21 days after herbicide treatments.
(§2) For each mutant, two homozygous tolerant R4 families were derived from two different regenerated plants and two heterozygous F1 families were obtained from crosses of R3 homozygous tolerant lines with the susceptible inbreds A188 and A619. Sethoxydim and haloxyfop each were applied at rates ranging from 0.0034 to 7.0 kg/ha. For each genotype a five-rate doubling series was used to determine herbicide lethality. Because of the large differences between wildtype and mutants in herbicide susceptibility, the ranges of herbicide application rates were varied. Two five plant/pot replicates of each family were evaluated for each rate. Herbicide injury symptoms were scored visually 21 days after herbicide treatment. The lethal rate was considered to be the lowest application rate resulting in death of all seedlings in the four replications of each homozygous tolerant genotype or in the eight replications of the heterozygous combinations.

[3] = test system: Heterozygous tolerant Inbred × H1 seedlings; experiment: Foliar herbicide application, lethal rate; assay type: in vivo, maize (Zea mays L.); conditions: Heterozygous tolerant Inbred × H1, average of A188- and A619-derived F1 families
Procedure: as §1, §2

[4] = test system: Homozygous tolerant H1 seedlings; experiment: Foliar herbicide application, lethal rate; assay type: in vivo, maize (Zea mays L.); conditions: Homozygous tolerant H1, average of two families; scored 21 days after treatment
Procedure: as §1, §2

[5] = test system: Homozygous tolerant H2 seedlings; experiment: Foliar herbicide application, lethal rate; assay type: in vivo, maize (Zea mays L.); conditions: for Fold increase in tolerance compared to the wildtype: H2 seedlings; for Lethal rates: Homozygous tolerant H2, average of two families, scored 21 days after treatment
Procedure: as §1, §2

[6] = test system: Heterozygous tolerant Inbred × H2 seedlings; experiment: Foliar herbicide application, lethal rate; assay type: in vivo, maize (Zea mays L.); conditions: Heterozygous tolerant Inbred × H2, average of A188- and A619-derived F1 families
Procedure: as §1, §2

[7] = test system: cell line 2167-9/2160-154 S-1; experiment: Callus herbicide tolerance, line S-1; assay type: cell-based, maize; conditions: cell line S-1
Procedure: (§3) Tolerant cell line 2167-9/2160-154 S-2 (“S-2”) was characterized to evaluate: (1) the magnitude of sethoxydim tolerance; (2) cross-tolerance of haloxyfop; and (3) the biochemical basis for the tolerance. Callus tissue from S-2 that had been maintained on 10 μM sethoxydim was transferred to media containing up to 100 μM sethoxydim. One-half gram of S-2 tissue was plated on a 7 cm filter paper as a lawn overlaying 50 ml agar-solidified culture medium containing 0, 0.5, 1.0, 2.0, 5.0, 10.0, 50.0 and 100 μM sethoxydim, and cultured for two weeks. Control cell line 2167-9/2160-154 was plated similarly on medium containing the same levels of sethoxydim. The control cell line growth after two weeks was inhibited 50% at 1 μM sethoxydim.
The tolerant callus cultures were characterized to determine the magnitude of sethoxydim and haloxyfop tolerance. Callus tissue from these lines was evaluated in experiments as described above in the characterization of line 2167-9/2160-154 S-2.

[8] = test system: tolerant cell line 2167-9/2160-154 S-2; experiment: Callus growth on herbicide medium, line S-2; assay type: cell-based, maize
Procedure: as §3

[9] = test system: fatty acid synthetase; experiment: [14C]malonyl-CoA incorporation into fatty acids, cell-free extracts from corn suspension cultures; assay type: biochemical, Black Mexican Sweet (BMS) corn
Procedure: Incorporation of [^14C]malonyl-Coenzyme A into fatty acids (P. B. Hoj et al., supra; and J. B. Ohlrogge et al., Proc. Natl. Acad. Sci. USA, 76, 1194-1198 (1979)) was assayed using cell-free preparations from BMS tissue culture. Cells harvested during logarithmic growth phase were frozen in liquid nitrogen, ground with a mortar and pestle, and thawed in a medium containing: 0.1 M HEPES-KOH, pH 7.5; 0.3 M glycerol, and 5 mM DTT (buffer:tissue, 2:1, v/w). The homogenate was centrifuged at 12,000 g for 20 minutes. The supernatant was filtered through miracloth and centrifuged (125,000 g) for 60 minutes and then filtered through miracloth and assayed. Assays were conducted at 25° C. in a 0.4 ml volume containing: 1.0 mM ATP, 0.32 mM NADPH, 0.38 mM NADH, 25 μM CoA, 10 μM acetyl-CoA, 25 μg acyl-carrier protein, and 12 μM malonyl-CoA (11.54 μCi/μmol). Reactions were initiated by addition of [^14C]malonyl CoA and stopped by addition of 0.4 ml 40% KOH. Label incorporation into fatty acids was determined as above. Chlorophyll (D. I. Arnon, Plant Physiol., 24, 1-15 (1949)) and protein (P. K. Smith et al., Anal. Biochem., 150, 76-85 (1985)) were determined as described therein.

| SMILES | Fold increase in herbicide concentration that inhibits ACCase activity by 50% vs unselected parent cell line [1] | Fold increase in herbicide concentration that inhibits ACCase activity by 50% vs unselected parent cell line ([1]; listed as haloxyfop) | Lethal rates [2] | Lethal rates [3] | Lethal rates [4] | Fold increase in tolerance compared to the wildtype [5] | Lethal rates [5] | Lethal rates [6] | Fold increase in herbicide concentration that results in a 50% reduction in growth vs unselected control cell line [7] | Fold increase in herbicide concentration that results in a 50% reduction in growth vs unselected control cell line ([7]; listed as haloxyfop) | IC50 ([8]; Zea mays, callus growth, read-out: Herbicide concentration inhibiting growth of S-2) | Fold increase in tolerance of S-2 versus control callus line (growth) ([8]; callus growth) | Effect on [14C]malonyl-CoA incorporation into fatty acids (fatty acid synthetase activity) ([9]; haloxyfop 1 μM) | Fold increase in herbicide concentration that inhibits ACCase activity by 50% vs unselected parent cell line ([1]; listed as sethoxydim) | Growth of S-2 callus ([8]; 100 μM sethoxydim, cultured two weeks) | Effect on [14C]malonyl-CoA incorporation into fatty acids (fatty acid synthetase activity) ([9]; sethoxydim 10 μM) |
| --- | --- | --- | --- | --- | --- | --- | --- | --- | --- | --- | --- | --- | --- | --- | --- | --- |
| CC(Oc1ccc(Oc2ncc(C(F)(F)F)cc2Cl)cc1)C(=O)O (stereo not shown) [Haloxyfop, 2-[4-[[3-chloro-5-(trifluoromethyl)-2-pyridinyl]oxy]phenoxy]-propanoic acid] | 0 fold | no difference | 0.11 kg/ha | 0.11 kg/ha | 0.11 kg/ha | about 16 fold | 0.22 kg/ha | 0.11 kg/ha | 4^1 fold | four-fold increase | 0.65 µM | ~30 fold | did not inhibit | – | – | – |
| CCCC(=NOCC)C1=C(O)CC(CC(C)SCC)CC1=O (stereo not shown) [Sethoxydim, 2-[1-(ethoxyimino)-butyl]-5-[2-(ethylthio)propyl]-3-hydroxy-2-cyclohexen-1-one] | 0 fold | – | ≧1.8 kg/ha | 0.055 kg/ha | 0.055 kg/ha | about 16 fold | 0.88 kg/ha | 0.22 kg/ha | ~100 fold | – | – | at least 100 fold | – | no difference | not inhibited | did not inhibit |
